Experimental data: patent US20250214991A1 (Oncopia Therapeutics, Inc. d/b/a/ SK Life Science Labs, priority 2022, published 2025)
Where a name gives a salt, the structure may show the parent alone. Read-outs that look alike come from different tables or passages of the source.

Experiments:
Type in all cases: cell-based
IKZF2 [1] = molecular target: T1, IKZF2 (Homo sapiens (Human), UniProt Q96SW2+Q9UKS7); assay: In vitro IKZF2 FACS Assay in Jurkat cells; details: 24 hrs; for DC50: half maximal degradation concentration; for Dmax: maximal degradation percentage
Procedure: In vitro IKZF2 FACS Assay
DC50, A: <1 nM; B: 1-10 nM; C: 10-100 nM; D: 100-1000 nM; E: >1000 nM. Dmax, A: >80%; B: 60-80%; C: 40-60%; D: 20-40%; E: <20%.

IKZF2 [2] = molecular target: T1, IKZF2; assay: In vitro IKZF2 HiBit Assay (HEK293T Flp-in-HiBiT cells)
Procedure, shortened: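 HEK293T Flp-in cells carrying an endogenous N-terminal HiBiT tag on IKZF2 were exposed to compound for 6 h at 0.1% DMSO. The dilution series was 11 doses at 3-fold, diluted from 1 mM. Nano-Glo HiBiT lytic luminescence, normalized to DMSO, gave DC50 for 50% degradation and Dmax across the concentration range, both reported in letter bins.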

IKZF1 = IKZF1 (Homo sapiens (Human), UniProt Q13422+Q96SW2); assay: In vitro IKZF1 HiBit Assay (HEK293T Flp-in-HiBiT-IKZF1 stable cell line)
Procedure, shortened: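 HEK293T Flp-in cells carrying N-terminal HiBiT-tagged IKZF1 were exposed to compound (0.1% DMSO) for 6 h at 3000 cells/well. HiBiT luminescence was read after lytic LgBiT detection. DC50 and Dmax were taken from DMSO-normalized dose-response curves.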

[3] = HEK293T Flp-in-HiBiT cells, 6 hrs incubation; read-out: IKZF2 HiBit DC50
[4] = HEK-293T; HEK293T Flp-in-HiBiT cells, 6 hrs incubation; read-out: IKZF2 HiBit Dmax (%)
[5] = HEK293T Flp-in-HiBiT-IKZF1 stable cell line, 6 hrs incubation; read-out: IKZF1 HiBit DC50
[6] = HEK-293T; HEK293T Flp-in-HiBiT-IKZF1 stable cell line, 6 hrs incubation; read-out: IKZF1 HiBit Dmax (%)

T1 sequence (Q9UKS7 whole entry): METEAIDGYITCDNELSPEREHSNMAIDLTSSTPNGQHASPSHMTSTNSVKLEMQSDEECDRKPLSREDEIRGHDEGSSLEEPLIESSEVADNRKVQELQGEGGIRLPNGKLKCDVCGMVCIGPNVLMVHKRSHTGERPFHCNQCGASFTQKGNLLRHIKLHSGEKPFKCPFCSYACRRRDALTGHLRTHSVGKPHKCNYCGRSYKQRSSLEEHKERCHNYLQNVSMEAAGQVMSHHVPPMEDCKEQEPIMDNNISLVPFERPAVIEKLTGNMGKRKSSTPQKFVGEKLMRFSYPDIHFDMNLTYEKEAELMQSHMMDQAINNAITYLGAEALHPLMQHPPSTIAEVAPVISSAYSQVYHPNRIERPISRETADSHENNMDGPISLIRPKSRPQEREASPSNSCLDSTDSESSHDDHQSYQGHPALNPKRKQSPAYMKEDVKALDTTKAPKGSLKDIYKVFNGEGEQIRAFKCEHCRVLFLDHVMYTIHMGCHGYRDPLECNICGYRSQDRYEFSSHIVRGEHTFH
T1 sequence (Q96SW2 whole entry): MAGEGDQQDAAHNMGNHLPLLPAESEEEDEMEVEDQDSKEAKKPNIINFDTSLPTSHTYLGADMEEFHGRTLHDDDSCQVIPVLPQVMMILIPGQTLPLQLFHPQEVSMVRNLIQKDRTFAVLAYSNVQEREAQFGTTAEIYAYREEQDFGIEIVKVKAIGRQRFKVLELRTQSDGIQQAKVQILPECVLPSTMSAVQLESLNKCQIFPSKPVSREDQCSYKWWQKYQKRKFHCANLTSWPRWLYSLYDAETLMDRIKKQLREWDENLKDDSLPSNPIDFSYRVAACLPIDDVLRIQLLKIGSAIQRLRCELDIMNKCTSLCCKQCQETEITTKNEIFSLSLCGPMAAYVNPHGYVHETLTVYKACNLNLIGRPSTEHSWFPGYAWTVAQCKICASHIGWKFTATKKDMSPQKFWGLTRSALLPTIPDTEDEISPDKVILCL
T1 sequence (Q16531 2-1140 partner): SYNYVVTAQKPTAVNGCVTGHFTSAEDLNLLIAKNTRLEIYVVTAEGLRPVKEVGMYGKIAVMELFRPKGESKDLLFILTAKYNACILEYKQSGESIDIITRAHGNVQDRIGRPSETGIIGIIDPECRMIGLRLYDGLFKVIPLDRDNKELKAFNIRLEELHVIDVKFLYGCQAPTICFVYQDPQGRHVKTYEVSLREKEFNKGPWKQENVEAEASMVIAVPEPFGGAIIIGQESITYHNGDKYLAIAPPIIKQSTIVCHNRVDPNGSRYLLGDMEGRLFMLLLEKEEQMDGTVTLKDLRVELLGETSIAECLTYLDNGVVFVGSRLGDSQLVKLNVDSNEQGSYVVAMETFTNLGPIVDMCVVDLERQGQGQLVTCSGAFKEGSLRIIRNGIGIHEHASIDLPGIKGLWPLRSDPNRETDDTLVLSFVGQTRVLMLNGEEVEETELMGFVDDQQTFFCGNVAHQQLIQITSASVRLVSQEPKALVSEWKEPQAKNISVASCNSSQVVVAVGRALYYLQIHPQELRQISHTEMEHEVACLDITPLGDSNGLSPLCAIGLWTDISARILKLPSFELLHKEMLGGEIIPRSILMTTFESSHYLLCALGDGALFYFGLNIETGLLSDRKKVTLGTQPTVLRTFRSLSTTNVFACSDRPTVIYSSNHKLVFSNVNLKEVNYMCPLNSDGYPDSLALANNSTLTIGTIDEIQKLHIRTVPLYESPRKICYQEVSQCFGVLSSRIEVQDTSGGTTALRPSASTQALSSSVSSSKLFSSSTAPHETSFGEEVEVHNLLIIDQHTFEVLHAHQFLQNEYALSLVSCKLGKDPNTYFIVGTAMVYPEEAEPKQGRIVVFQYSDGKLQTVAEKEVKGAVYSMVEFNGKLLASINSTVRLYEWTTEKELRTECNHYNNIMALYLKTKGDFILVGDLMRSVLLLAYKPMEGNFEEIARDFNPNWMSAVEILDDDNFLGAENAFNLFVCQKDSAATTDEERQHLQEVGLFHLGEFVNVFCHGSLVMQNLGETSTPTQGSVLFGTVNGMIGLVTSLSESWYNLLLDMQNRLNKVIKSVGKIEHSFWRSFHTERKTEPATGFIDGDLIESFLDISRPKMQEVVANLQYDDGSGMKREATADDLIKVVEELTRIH
Sequence of IKZF1 (Q13422 whole entry): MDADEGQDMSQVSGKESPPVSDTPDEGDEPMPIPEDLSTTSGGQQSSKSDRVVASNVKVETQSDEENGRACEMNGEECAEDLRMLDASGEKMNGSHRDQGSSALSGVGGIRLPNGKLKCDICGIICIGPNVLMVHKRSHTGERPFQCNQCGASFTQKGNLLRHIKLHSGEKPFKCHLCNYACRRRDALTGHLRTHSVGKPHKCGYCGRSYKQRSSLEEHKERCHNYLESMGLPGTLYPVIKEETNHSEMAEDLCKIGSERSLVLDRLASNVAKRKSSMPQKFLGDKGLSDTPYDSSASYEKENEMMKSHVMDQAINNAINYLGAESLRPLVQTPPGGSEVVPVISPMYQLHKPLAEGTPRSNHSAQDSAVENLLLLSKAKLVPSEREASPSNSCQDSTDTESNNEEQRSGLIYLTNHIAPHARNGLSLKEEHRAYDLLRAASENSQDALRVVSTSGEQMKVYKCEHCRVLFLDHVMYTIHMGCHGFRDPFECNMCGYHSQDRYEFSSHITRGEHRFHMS
Sequence of IKZF1 (Q96SW2 whole entry): as the sequence (Q96SW2 whole entry) above
Sequence of IKZF1 (Q16531 2-1140 partner): as the sequence (Q16531 2-1140 partner) above

| DC50 (IKZF2 [1]) | Dmax (IKZF2 [1]) | DC50 (IKZF2 [2]; [3]) | Dmax (IKZF2 [2]; [4]) | DC50 (IKZF1; [5]) | Dmax (IKZF1; [6]) | Structure (SMILES) | Dmax (IKZF2 [2]; HEK-293T, read-out: IKZF2 HiBit Dmax (%)) | DC50 (IKZF2 [2]; read-out: IKZF2 HiBit DC50; HEK293T Flp-in-HiBiT cells, 6 hrs incubation) | Dmax (IKZF1; HEK-293T, read-out: IKZF1 HiBit Dmax (%)) | DC50 (IKZF1; read-out: IKZF1 HiBit DC50; HEK293T Flp-in-HiBiT-IKZF1 stable cell line, 6 hrs incubation) |
| --- | --- | --- | --- | --- | --- | --- | --- | --- | --- | --- |
| 0.001 to 0.01 µM | 60 to 80% | 0.001 to 0.01 µM | 60 to 80% | > 10 µM | < 20% | COC[C@@H]1CCCN1Cc1cc(-c2ccc3c(c2)CN(C2CCC(=O)NC2=O)C3=O)nc2c1ccn2C1COC1 (stereo partly drawn) [Example 250, 3-(5-(4-(((S)-2-(methoxymethyl)pyrrolidin-1-yl)methyl)-1-(oxetan-3-yl)-1H-pyrrolo[2,3-b]pyridin-6-yl)-1-oxoisoindolin-2-yl) piperidine-2,6-dione] |  |  |  |  |
| 0.001 to 0.01 µM | > 80% | 0.001 to 0.01 µM | > 80% | 0.01 to 0.1 µM | 20 to 40% | COC1CC(n2ccc3c(CN4CCCC4)cc(-c4ccc5c(c4)CN(C4CCC(=O)NC4=O)C5=O)nc32)C1 (stereo not drawn) [Example 255, 3-(5-(1-(3-methoxycyclobutyl)-4-(pyrrolidin-1-ylmethyl)-1H-pyrrolo[2,3-b]pyridin-6-yl)-1-oxoisoindolin-2-yl) piperidine-2,6-dione] |  |  |  |  |
| 0.001 to 0.01 µM | > 80% | 0.001 to 0.01 µM | > 80% | 0.01 to 0.1 µM | 60 to 80% | CN1CC(n2ccc3c(CN4CCCC4)cc(-c4ccc5c(c4F)CN(C4CCC(=O)NC4=O)C5=O)nc32)C1 (stereo not drawn) [Example 260, 3-(4-fluoro-5-(1-(1-methylazetidin-3-yl)-4-(pyrrolidin-1-ylmethyl)-1H-pyrrolo[2,3-b]pyridin-6-yl)-1-oxoisoindolin-2-yl) piperidine-2,6-dione] |  |  |  |  |
| 0.001 to 0.01 µM | > 80% | 0.001 to 0.01 µM | > 80% | 0.01 to 0.1 µM | 60 to 80% | CN1CC(n2ncc3c(CN4CCCC4)cc(-c4ccc5c(c4)CN(C4CCC(=O)NC4=O)C5=O)nc32)C1 (stereo not drawn) [Example 261, 3-(5-(1-(1-methylazetidin-3-yl)-4-(pyrrolidin-1-ylmethyl)-1H-pyrazolo[3,4-b]pyridin-6-yl)-1-oxoisoindolin-2-yl) piperidine-2,6-dione] |  |  |  |  |
| 0.01 to 0.1 µM | 40 to 60% | 0.001 to 0.01 µM | 60 to 80% | > 10 µM | < 20% | O=C1CCC(N2Cc3cc(-c4cc(CN5CCCCC56CC6)c5ccn(C6COC6)c5n4)ccc3C2=O)C(=O)N1 (stereo not drawn) [Example 264, 3-(5-(4-((4-azaspiro[2.5]octan-4-yl)methyl)-1-(oxetan-3-yl)-1H-pyrrolo[2,3-b]pyridin-6-yl)-1-oxoisoindolin-2-yl) piperidine-2,6-dione] |  |  |  |  |
| 0.001 to 0.01 µM | 60 to 80% | 0.001 to 0.01 µM | > 80% | > 10 µM | < 20% | Cn1ccc(-n2ccc3c(CN4CCCC4)cc(-c4ccc5c(c4)CN([C@H]4CCC(=O)NC4=O)C5=O)nc32)n1 [Example 265, (S)-3-(5-(1-(1-methyl-1H-pyrazol-3-yl)-4-(pyrrolidin-1-ylmethyl)-1H-pyrrolo[2,3-b]pyridin-6-yl)-1-oxoisoindolin-2-yl) piperidine-2,6-dione] |  |  |  |  |
| 0.001 to 0.01 µM | > 80% | 0.001 to 0.01 µM | > 80% | 0.01 to 0.1 µM | 40 to 60% | COC1CCN(Cc2cc(-c3ccc4c(c3F)CN(C3CCC(=O)NC3=O)C4=O)nc3c2ccn3C2CS(=O)(=O)C2)CC1 (stereo not drawn) [Example 266, 3-(5-(1-(1,1-dioxidothietan-3-yl)-4-((4-methoxypiperidin-1-yl)methyl)-1H-pyrrolo[2,3-b]pyridin-6-yl)-4-fluoro-1-oxoisoindolin-2-yl) piperidine-2,6-dione formate] |  |  |  |  |
| 0.001 to 0.01 µM | > 80% | < 0.001 µM | > 80% | 0.01 to 0.1 µM | 40 to 60% | O=C1CCC(N2Cc3c(ccc(-c4cc(CN5CCC(F)CC5)c5ccn(C6CS(=O)(=O)C6)c5n4)c3F)C2=O)C(=O)N1 (stereo not drawn) [Example 268, 3-(5-(1-(1,1-dioxidothietan-3-yl)-4-((4-fluoropiperidin-1-yl)methyl)-1H-pyrrolo[2,3-b]pyridin-6-yl)-4-fluoro-1-oxoisoindolin-2-yl) piperidine-2,6-dione] |  |  |  |  |
| 0.001 to 0.01 µM | > 80% | 0.001 to 0.01 µM | > 80% | 0.01 to 0.1 µM | 20 to 40% | O=C1CCC(N2Cc3c(ccc(-c4cc(CN5CC6COCC6C5)c5ccn(C6CS(=O)(=O)C6)c5n4)c3F)C2=O)C(=O)N1 (stereo not drawn) [Example 269, 3-(5-(1-(1,1-dioxidothietan-3-yl)-4-((tetrahydro-1H-furo[3,4-c]pyrrol-5 (3H)-yl)methyl)-1H-pyrrolo[2,3-b]pyridin-6-yl)-4-fluoro-1-oxoisoindolin-2-yl) piperidine-2,6-dione] |  |  |  |  |
| 0.001 to 0.01 µM | > 80% | < 0.001 µM | > 80% | > 10 µM | < 20% | O=C1CCC(N2Cc3c(ccc(-c4nc5c(ccn5C5COC5)c(CN5CCCC5)c4Cl)c3F)C2=O)C(=O)N1 (stereo not drawn) [Example 270, 3-(5-(5-chloro-1-(oxetan-3-yl)-4-(pyrrolidin-1-ylmethyl)-1H-pyrrolo[2,3-b]pyridin-6-yl)-4-fluoro-1-oxoisoindolin-2-yl) piperidine-2,6-dione] |  |  |  |  |
| 0.001 to 0.01 µM | > 80% | 0.001 to 0.01 µM | > 80% | 0.01 to 0.1 µM | 40 to 60% | O=C1CCC(N2Cc3c(ccc(-c4cc(CN5CCC6(CC5)COC6)c5ccn(C6CS(=O)(=O)C6)c5n4)c3F)C2=O)C(=O)N1 (stereo not drawn) [Example 272, 3-(5-(4-((2-oxa-7-azaspiro[3.5]nonan-7-yl)methyl)-1-(1,1-dioxidothietan-3-yl)-1H-pyrrolo[2,3-b]pyridin-6-yl)-4-fluoro-1-oxoisoindolin-2-yl) piperidine-2,6-dione] |  |  |  |  |
| 0.001 to 0.01 µM | 60 to 80% | < 0.001 µM | > 80% | 1 to 10 µM | 20 to 40% | O=C1CCC(N2Cc3cc(-c4cc(CN5CCCC5)c5ccn(C6CC(F)(F)C6)c5n4)ccc3C2=O)C(=O)N1 (stereo not drawn) [Example 274, 3-(5-(1-(3,3-difluorocyclobutyl)-4-(pyrrolidin-1-ylmethyl)-1H-pyrrolo[2,3-b]pyridin-6-yl)-1-oxoisoindolin-2-yl) piperidine-2,6-dione] |  |  |  |  |
| 0.01 to 0.1 µM | 60 to 80% | 0.001 to 0.01 µM | 60 to 80% | > 10 µM | < 20% | Cc1cc2c(CN3CCCC3)cc(-c3ccc4c(c3)CN(C3CCC(=O)NC3=O)C4=O)nc2n1C1COC1 (stereo not drawn) [Example 275, 3-(5-(2-methyl-1-(oxetan-3-yl)-4-(pyrrolidin-1-ylmethyl)-1H-pyrrolo[2,3-b]pyridin-6-yl)-1-oxoisoindolin-2-yl) piperidine-2,6-dione] |  |  |  |  |
| 0.001 to 0.01 µM | > 80% | 0.001 to 0.01 µM | > 80% | > 10 µM | < 20% | CC1c2cc(-c3cc(CN4CCCC4)c4ccn(C5COC5)c4n3)ccc2C(=O)N1C1CCC(=O)NC1=O (stereo not drawn) [Example 276, 3-(3-methyl-5-(1-(oxetan-3-yl)-4-(pyrrolidin-1-ylmethyl)-1H-pyrrolo[2,3-b]pyridin-6-yl)-1-oxoisoindolin-2-yl) piperidine-2,6-dione] |  |  |  |  |
| 0.001 to 0.01 µM | > 80% | < 0.001 µM | > 80% | > 10 µM | < 20% | Cn1ccc2c(CN3CCCC3)c(Cl)c(-c3ccc4c(c3F)CN(C3CCC(=O)NC3=O)C4=O)nc21 (stereo not drawn) [Example 277, 3-(5-(5-chloro-1-methyl-4-(pyrrolidin-1-ylmethyl)-1H-pyrrolo[2,3-b]pyridin-6-yl)-4-fluoro-1-oxoisoindolin-2-yl) piperidine-2,6-dione] |  |  |  |  |

| Structure (SMILES) | DC50 (IKZF2 [1]) | Dmax (IKZF2 [1]) | DC50 (IKZF2 [2]; [3]) | Dmax (IKZF2 [2]; [4]) | DC50 (IKZF1; [5]) | Dmax (IKZF1; [6]) | Dmax (IKZF2 [2]; HEK-293T, read-out: IKZF2 HiBit Dmax (%)) | DC50 (IKZF2 [2]; read-out: IKZF2 HiBit DC50; HEK293T Flp-in-HiBiT cells, 6 hrs incubation) | Dmax (IKZF1; HEK-293T, read-out: IKZF1 HiBit Dmax (%)) | DC50 (IKZF1; read-out: IKZF1 HiBit DC50; HEK293T Flp-in-HiBiT-IKZF1 stable cell line, 6 hrs incubation) |
| --- | --- | --- | --- | --- | --- | --- | --- | --- | --- | --- |
| CC1(C)CCCN1Cc1cc(-c2ccc3c(c2)CN(C2CCC(=O)NC2=O)C3=O)nc2c1ccn2C1COC1 (stereo not drawn) [Example 254, 3-(5-(4-((2,2-dimethylpyrrolidin-1-yl)methyl)-1-(oxetan-3-yl)-1H-pyrrolo[2,3-b]pyridin-6-yl)-1-oxoisoindolin-2-yl) piperidine-2,6-dione] | 0.01 to 0.1 µM | 60 to 80% |  |  |  |  | 60 to 80% | 0.001 to 0.01 µM | < 20% | > 10 µM |
| CO[C@H]1C[C@H](Oc2ccnc3c(CN4CCCC4)cc(-c4ccc5c(c4)CN(C4CCC(=O)NC4=O)C5=O)nc23)C1 (stereo partly drawn) [Example 280, 3-(5-(8-((1r,3r)-3-methoxycyclobutoxy)-4-(pyrrolidin-1-ylmethyl)-1,5-naphthyridin-2-yl)-1-oxoisoindolin-2-yl) piperidine-2,6-dione] | 0.01 to 0.1 µM | 60 to 80% | 0.01 to 0.1 µM | 60 to 80% | > 10 µM | < 20% |  |  |  |  |
